# Literature values, collected in patent US20130274214A1, “METHOD FOR TREATING BLEPHARITIS” (INSPIRE PHARMACEUTICALS, INC., priority 2010, published 2013).
# Test system: meibomian gland secretions (meibum)
# Conditions: daily topical administration to the ocular surface; subjects with meibomian gland dysfunction
compound,measurement,value
CC[C@H]1OC(=O)[C@H](C)[C@@H](O[C@H]2C[C@@](C)(OC)[C@@H](O)[C@H](C)O2)[C@H](C)[C@@H](O[C@@H]2O[C@H](C)C[C@H](N(C)C)[C@H]2O)[C@](C)(O)C[C@@H](C)CN(C)[C@H](C)[C@@H](O)[C@]1(C)O [azithromycin],physicochemical properties of the meibum,improved the physicochemical properties of the meibum towards that of normal subjects
